{"source": "patent US7173025B1", "about": "“Aminoheterocyclic derivatives as antithrombotic or anticoagulant agents” (Zeneca Limited, priority 1996, dated 2007)", "note": "Counter-ions that a name gives are not always drawn.", "data": [{"target": "human Factor Xa (Homo sapiens, UniProt P00742)", "sequence (P00742 235-488 limits assumed)": "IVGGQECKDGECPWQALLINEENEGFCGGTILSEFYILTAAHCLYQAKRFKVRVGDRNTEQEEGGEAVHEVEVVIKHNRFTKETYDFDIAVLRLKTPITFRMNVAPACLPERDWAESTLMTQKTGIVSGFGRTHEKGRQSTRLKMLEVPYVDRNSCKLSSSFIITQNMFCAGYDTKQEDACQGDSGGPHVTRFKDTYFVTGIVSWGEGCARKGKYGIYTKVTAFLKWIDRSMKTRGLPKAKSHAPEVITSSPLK", "sequence (P00742 41-179 partner limits assumed)": "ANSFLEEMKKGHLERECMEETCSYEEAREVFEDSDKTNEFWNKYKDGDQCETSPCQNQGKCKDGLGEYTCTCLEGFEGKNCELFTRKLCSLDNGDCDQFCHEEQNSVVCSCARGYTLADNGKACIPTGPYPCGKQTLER", "experiment": "Measurement of Factor Xa Inhibition (chromogenic substrate S-2765)", "format": "biochemical", "settings": "test a); read-out: IC50 against Factor Xa", "procedure": "a) Measurement of Factor Xa Inhibition\nAn in vitro assay system was carried out based on the method of Kettner et al., J. Biol. Chem., 1990, 265, 18289-18297, whereby various concentrations of a test compound were dissolved in DMSO and diluted in a pH7.5 buffer containing 0.5% of a polyethylene glycol (PEG 6000) and incubated at 37° C. with human Factor Xa (0.001 Units/ml, 0.3 ml) for 15 minutes. The chromogenic substrate S-2765 (KabiVitum AB, 20 μM) was added and the mixture was incubated at 37° C. for 20 minutes whilst the absorbance at 405 nm was measured. The maximum reaction velocity (Vmax) was determined and compared with that of a control sample containing no test compound. Inhibitor potency was expressed as an IC50 value.", "units": {"IC50": "µM"}, "values": [{"compound": "O=C(c1ccc(S(=O)(=O)c2ccc3cc(Cl)ccc3c2)cc1)N1CCN(c2ccncc2)CC1", "note": "[Example 1, 1-[4-(6-chloronaphth-2-ylsulphonyl)benzoyl]-4-(4-pyridyl)piperazine]", "IC50": 0.013}]}, {"target": "human thrombin (Homo sapiens, UniProt P00734)", "experiment": "Measurement of Thrombin Inhibition (chromogenic substrate S-2238)", "format": "biochemical", "settings": "test b); read-out: IC50 against thrombin", "procedure": "b) Measurement of Thrombin Inhibition\nThe procedure of method a) was repeated except that human thrombin (0.005 Units/ml) and the chromogenic substrate S-2238 (KabiVitum AB, 7 μM) were employed.", "units": {"IC50": "µM"}, "values": [{"compound": "O=C(c1ccc(S(=O)(=O)c2ccc3cc(Cl)ccc3c2)cc1)N1CCN(c2ccncc2)CC1", "note": "[Example 1, 1-[4-(6-chloronaphth-2-ylsulphonyl)benzoyl]-4-(4-pyridyl)piperazine]", "IC50": "> 40"}]}, {"system": "blood plasma", "experiment": "Measurement of Anticoagulant Activity (in vitro prothrombin time test)", "set-up": "species or system human, rat or rabbit", "settings": "test c)", "procedure": "c) Measurement of Anticoagulant Activity\nAn in vitro assay whereby human, rat or rabbit venous blood was collected and added directly to a sodium citrate solution (3.2 g/100 ml, 9 parts blood to 1 part citrate solution). Blood plasma was prepared by centrifugation (1000 g, 15 minutes) and stored at 2-4° C. Conventional prothrombin time (PT) tests were carried out in the presence of various concentrations of a test compound and the concentration of test compound required to double the clotting time, hereinafter referred to as CT2, was determined. In the PT test, the test compound and blood plasma were incubated at 37° C. for 10 minutes. Tissue thromboplastin with calcium (Sigma Limited, Poole, England) was added and fibrin formation and the time required for a clot to form were determined.", "units": {"CT2 (PT), concentration of test compound required to double the clotting time": "µM"}, "values": [{"compound": "O=C(c1ccc(S(=O)(=O)c2ccc3cc(Cl)ccc3c2)cc1)N1CCN(c2ccncc2)CC1", "note": "[Example 1, 1-[4-(6-chloronaphth-2-ylsulphonyl)benzoyl]-4-(4-pyridyl)piperazine]", "CT2 (PT), concentration of test compound required to double the clotting time": 5}]}, {"system": "not given", "experiment": "not given", "settings": "not given", "units": {"melting point": "°C"}, "values": [{"compound": "O=S(=O)(Nc1ccc(OC2CCN(c3ccncc3)CC2)cc1)c1ccc(-c2ccc(Br)cc2)cc1", "note": "(as salt: hydrochloride) [Example 4, 4′-bromo-N-{4-[1-(4-pyridyl)piperidin-4-yloxy]phenyl}-4-biphenylylsulphonamide]", "melting point": "302 to 304"}, {"compound": "O=C(c1ccc(S(=O)(=O)c2ccc3cc(Cl)ccc3c2)cc1)N1CCN(c2ccncc2)CC1", "note": "[Example 1, 1-[4-(6-chloronaphth-2-ylsulphonyl)benzoyl]-4-(4-pyridyl)piperazine]", "melting point": "267 to 269"}, {"compound": "O=S(=O)(c1ccc2cc(Br)ccc2c1)N(c1ccc(OCC2CCN(c3ccncc3)CC2)cc1)S(=O)(=O)c1ccc2cc(Br)ccc2c1", "note": "[Example 15, 6-bromo-N-(6-bromonaphth-2-ylsulphonyl)-N-{4-[1-(4-pyridyl)piperidin-4-ylmethoxy]phenyl}-2-naphthalenesulphonamide]", "melting point": "246 to 252"}, {"compound": "Cc1ccc(S(=O)(=O)Nc2ccc(OC3CCN(c4ccncc4)CC3)cc2)cc1", "note": "(as salt: hydrochloride) [Example 7, N-{4-[1-(4-pyridyl)piperidin-4-yloxy]phenyl}-4-toluenesulphonamide]", "melting point": "270 to 272"}, {"compound": "O=S(=O)(c1ccc(-c2ccc(Br)cc2)cc1)N(c1ccc(OCC2CCN(c3ccncc3)CC2)cc1)S(=O)(=O)c1ccc(-c2ccc(Br)cc2)cc1", "note": "[Example 14, 4′-bromo-N-(4′-bromo-4-biphenylylsulphonyl)-N-{4-[1-(4-pyridyl)piperidin-4-ylmethoxy]phenyl}-4-biphenylylsulphonamide]", "melting point": "136 to 140"}, {"compound": "O=S(=O)(Nc1cccc(OC2CCN(c3ccncc3)CC2)c1)c1ccc2cc(Br)ccc2c1", "note": "(as salt: hydrochloride) [Example 16, 6-bromo-N-{3-[1-(4-pyridyl)piperidin-4-yloxy]phenyl}-2-naphthalenesulphonamide]", "melting point": "298 to 300"}, {"compound": "O=C(c1ccc(Sc2ccc3cc(Br)ccc3c2)cc1)N1CCN(c2ccncc2)CC1", "note": "[Example 27, 1-[4-(6-bromonaphth-2-ylthio)benzoyl]-4-(4-pyridyl)piperazine]", "melting point": "210 to 213"}, {"compound": "O=S(=O)(/C=C/c1ccc(Cl)cc1)Nc1ccc(OCC2CCN(c3ccncc3)CC2)cc1", "note": "(as salt: hydrochloride) [Example 13, 4-chloro-N-{4-[1-(4-pyridyl)piperidin-4-ylmethoxy]phenyl}-(E)-styrylsulphonamide]", "melting point": "220 to 223"}, {"compound": "O=S(=O)(Nc1ccc(OCC2CCN(c3ccncc3)CC2)cc1)c1ccc2cc(Br)ccc2c1", "note": "(as salt: hydrochloride) [Example 12, 6-bromo-N-{4-[1-(4-pyridyl)piperidin-4-ylmethoxy]-phenyl}-2-naphthalenesulphonamide]", "melting point": "167 to 169"}, {"compound": "Cc1ccc(S(=O)(=O)N(c2ccc(OC3CCN(c4ccncc4)CC3)cc2)S(=O)(=O)c2ccc(C)cc2)cc1", "note": "[Example 8, N-{4-[1-(4-pyridyl)piperidin-4-yloxy]phenyl}-N-(4-tolylsulphonyl)-4-toluenesulphonamide]", "melting point": "196 to 198"}, {"compound": "O=S(=O)(/C=C/c1ccc(Cl)cc1)Nc1cccc(OC2CCN(c3ccncc3)CC2)c1", "note": "(as salt: hydrochloride) [Example 21, 4-chloro-N -{3-[1-(4-pyridyl)piperidin-4-yloxy]phenyl}-(E)-styrylsulphonamide]", "melting point": "147 to 150"}, {"compound": "O=S(=O)(c1ccc(OC2CCN(c3ccncc3)CC2)cc1)c1ccc2cc(Br)ccc2c1", "note": "[Example 22, 4-[4-(6-bromonaphth-2-ylsulphonyl)phenoxy]-1-(4-pyridyl)piperidine]", "melting point": "180 to 183"}, {"compound": "O=S(=O)(c1ccc(S(=O)(=O)N2CCN(c3ccncc3)CC2)cc1)c1ccc2cc(Br)ccc2c1", "note": "(as salt: trifluoroacetate) [Example 25, 4-[4-(6-bromonaphth-2-ylsulphonyl)phenylsulphonyl]-1-(4-pyridyl)piperazine]", "melting point": "236 to 238"}, {"compound": "O=S(=O)(Nc1ccc(OCC2CCN(c3ccncc3)CC2)cc1)c1ccc(-c2ccc(Br)cc2)cc1", "note": "(as salt: hydrochloride) [Example 11, 4′-bromo-N-{4-[1-(4-pyridyl)piperidin-4-ylmethoxy]phenyl}-4-biphenylylsulphonamide]", "melting point": "293 to 295"}, {"compound": "O=S(=O)(Nc1ccccc1OCC1CCN(c2ccncc2)CC1)c1ccc2cc(Br)ccc2c1", "note": "[Example 20, 6-bromo-N-{2-[1-(4-pyridyl)piperidin-4-ylmethoxy]phenyl}-2-naphthalenesulphonamide]", "melting point": "197 to 200"}]}]}
